From ChEMBL document CHEMBL1151877, “Examination of halogen substituent effects on HIV-1 integrase inhibitors derived from 2,3-dihydro-6,7-dihydroxy-1H-isoindol-1-ones and 4,5-dihydroxy-1H-isoindole-1,3(2H)-diones” (Bioorg Med Chem Lett, 2009)

Experiments:
[1] = molecular target: Human immunodeficiency virus type 1 integrase (Human immunodeficiency virus 1) (UniProt Q7ZJM1); assay: Selectivity ratio of IC50 for HIV1 integrase strand transfer activity to IC50 for HIV1 integrase 3'-processing activity
[2] = molecular target: T1, Human immunodeficiency virus type 1 integrase (Human immunodeficiency virus 1, UniProt Q7ZJM1); assay: Inhibition of HIV1 integrase strand transfer activity in presence of magnesium
[3] = molecular target: T1, Human immunodeficiency virus type 1 integrase; assay: Inhibition of HIV1 integrase 3'-processing activity in presence of magnesium
[4] = tested on: Human immunodeficiency virus 1; assay: Antiviral activity against VSV-g-pseudotyped HIV1 assessed as inhibition of viral infection in human HOS cells pretreated for 3 hrs before viral infection by luciferase reporter gene assay; format: functional, organism-based; settings: Human immunodeficiency virus 1, HOS
HOS = assay: Cytotoxicity against human HOS cells; format: cell-based

T1 sequence (Q7ZJM1 whole entry): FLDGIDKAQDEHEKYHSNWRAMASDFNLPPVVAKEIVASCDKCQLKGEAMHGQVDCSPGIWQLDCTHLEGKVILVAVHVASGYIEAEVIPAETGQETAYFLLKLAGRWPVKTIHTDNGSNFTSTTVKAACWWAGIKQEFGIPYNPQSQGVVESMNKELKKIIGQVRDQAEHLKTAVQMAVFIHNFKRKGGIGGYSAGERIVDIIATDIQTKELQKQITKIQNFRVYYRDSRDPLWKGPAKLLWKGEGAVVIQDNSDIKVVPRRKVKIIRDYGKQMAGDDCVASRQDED
Chain of Human immunodeficiency virus type 1 integrase (Human immunodeficiency virus 1) (Q7ZJM1 as listed by the source): as the sequence (Q7ZJM1 whole entry) above

Row | Structure (SMILES) | Ratio IC50 [1] | IC50 [2] [µM] | IC50 [3] [µM] | EC50 [4] [µM] | IC50 (HOS) [µM]
1 | O=C1c2c(ccc(O)c2O)CN1Cc1ccc(F)cc1Cl | 700 | 2.5 | > 333 |  | 
2 | O=C1c2c(ccc(O)c2O)CN1Cc1c(F)cccc1Cl |  | 18 | > 333 |  | 
3 | O=C1c2ccc(O)c(O)c2C(=O)N1Cc1ccccc1 |  | 0.4 | 72 | 11.2 | 
4 | O=C1c2ccc(O)c(O)c2C(=O)N1Cc1ccc(Cl)c(Cl)c1 |  | 0.12 | 18 | 2.33 | 4.43
5 | O=C1c2ccc(O)c(O)c2C(=O)N1Cc1c(F)ccc(F)c1F |  | 1.8 | 158 |  | 
6 | O=C1c2c(ccc(O)c2O)CN1Cc1cc(Cl)c(F)cc1F |  | 4.4 | > 333 | 0.65 | 8.38
7 | O=C1c2ccc(O)c(O)c2C(=O)N1Cc1c(F)cccc1Cl |  | 3.5 | 54 |  | 
8 | O=C1c2ccc(O)c(O)c2C(=O)N1Cc1cc(Cl)ccc1F |  | 0.31 | 9 |  | 
9 | O=C1c2ccc(O)c(O)c2C(=O)N1Cc1ccc(F)c(Cl)c1 |  | 0.17 | 14 | 2.83 | 9.54
10 | O=C1c2ccc(O)c(O)c2C(=O)N1Cc1ccc(F)cc1 |  | 5 | 8 | 0.86 | 
11 | O=C1c2ccc(O)c(O)c2C(=O)N1Cc1ccc(F)c(Br)c1 |  | 0.9 | 11 |  | 
12 | O=C1c2c(ccc(O)c2O)CN1Cc1c(F)cccc1F |  | 20 | 71 |  | 
13 | O=C1c2ccc(O)c(O)c2C(=O)N1Cc1ccc(F)cc1Cl |  | 1.3 | 90 |  | 
14 | O=C1c2c(ccc(O)c2O)CN1Cc1ccc(F)c(Cl)c1 |  |  |  | 0.48 | 6.87
15 | O=C1c2c(ccc(O)c2O)CN1Cc1ccc(Cl)c(F)c1 |  | 6 | 97 |  | 
16 | O=C1c2c(ccc(O)c2O)CN1Cc1ccccc1F |  | 25 | > 333 |  | 
17 | O=C1c2ccc(O)c(O)c2C(=O)N1Cc1cc(F)c(F)cc1F |  | 0.5 | 54 |  | 
18 | O=C1c2c(ccc(O)c2O)CN1Cc1cccc(F)c1F |  | 0.7 | 72 |  | 
19 | O=C1c2c(ccc(O)c2O)CN1Cc1c(F)ccc(F)c1Cl |  | 8.9 | > 333 |  | 
20 | O=C1c2c(ccc(O)c2O)CN1Cc1cc(Cl)ccc1F |  | 1.2 | 18 |  | 
21 | O=C1c2c(ccc(O)c2O)CN1Cc1c(F)ccc(F)c1F |  | 25 | > 333 |  | 
22 | O=C1c2c(ccc(O)c2O)CN1Cc1cccc(Cl)c1 |  | 4 | 72 | 0.54 | 9.02
23 | O=C1c2c(ccc(O)c2O)CN1Cc1cccc(F)c1 |  | 21 | 238 | 1.06 | 8.6
24 | O=C1c2ccc(O)c(O)c2C(=O)N1Cc1cc(F)cc(F)c1 |  | 0.4 | 48 |  | 
25 | O=C1c2ccc(O)c(O)c2C(=O)N1Cc1cc(F)c(F)c(F)c1 |  | 0.6 | 10 |  | 
26 | O=C1c2ccc(O)c(O)c2C(=O)N1Cc1cc(F)ccc1F |  | 0.23 | 60 |  | 
27 | O=C1c2ccc(O)c(O)c2C(=O)N1Cc1c(F)ccc(F)c1Cl |  | 4 | 34 |  | 
28 | O=C1c2ccc(O)c(O)c2C(=O)N1Cc1c(F)c(F)c(F)c(F)c1F |  | 1.3 | 41 |  | 

Row | Structure (SMILES) | Ratio IC50 [1] | IC50 [2] [µM] | IC50 [3] [µM] | EC50 [4] [µM] | IC50 (HOS) [µM]
29 | O=C1c2c(ccc(O)c2O)CN1Cc1cc(F)cc(F)c1 |  | 0.3 | 233 | 2.42 | 17.2
30 | Cc1cc(CN2Cc3ccc(O)c(O)c3C2=O)ccc1F |  | 0.9 | 17 |  | 
31 | O=C1c2ccc(O)c(O)c2C(=O)N1Cc1cccc(F)c1 |  | 0.3 | 11 |  | 
32 | O=C1c2c(ccc(O)c2O)CN1Cc1ccc(F)cc1F |  | 0.5 | 37 |  | 
33 | Cc1cc(CN2C(=O)c3ccc(O)c(O)c3C2=O)ccc1F |  | 0.8 | 11 |  | 
34 | O=C1c2c(ccc(O)c2O)CN1Cc1ccc(Cl)c(Cl)c1 |  | 0.1 | 89 | 3.3 | 5.68
35 | O=C1c2ccc(O)c(O)c2C(=O)N1Cc1cc(Cl)c(F)cc1F |  | 0.4 | 79 | 4.43 | 13.7
36 | O=C1c2ccc(O)c(O)c2C(=O)N1Cc1cccc(I)c1 |  | 1 | 85 | 7.77 | 12
37 | O=C1c2ccc(O)c(O)c2C(=O)N1Cc1ccccc1F |  | 2 | 68 |  | 
38 | O=C1c2c(ccc(O)c2O)CN1Cc1cc(F)c(F)cc1F |  | 3.7 | > 333 |  | 
39 | O=C1c2c(ccc(O)c2O)CN1Cc1cccc(I)c1 |  | 4 | 169 | 1.07 | 6.92
40 | O=C1c2ccc(O)c(O)c2C(=O)N1Cc1ccc(F)cc1F |  | 0.3 | 16 |  | 
41 | O=C1c2ccc(O)c(O)c2C(=O)N1Cc1c(F)cccc1F |  | 2 | 103 |  | 
42 | O=C1c2ccc(O)c(O)c2C(=O)N1Cc1cccc(Cl)c1F |  | 2 | 25 | 2.74 | 11.5
43 | O=C1c2c(ccc(O)c2O)CN1Cc1cccc(Br)c1 |  | 3 | 264 | 0.59 | 7.24
44 | O=C1c2ccc(O)c(O)c2C(=O)N1Cc1ccc(Cl)c(F)c1 |  | 0.9 | 58 |  | 
45 | O=C1c2c(ccc(O)c2O)CN1Cc1cc(F)c(F)c(F)c1 |  | 4 | 99 |  | 
46 | O=C1c2c(ccc(O)c2O)CN1Cc1c(F)c(F)c(F)c(F)c1F |  | 8 | 230 |  | 
47 | O=C1c2ccc(O)c(O)c2C(=O)N1Cc1cccc(Cl)c1 |  | 0.4 | 14 | 4.2 | 13.3
48 | O=C1c2c(ccc(O)c2O)CN1Cc1ccc(F)c(Br)c1 |  | 1 | 34 |  | 
49 | O=C1c2ccc(O)c(O)c2C(=O)N1Cc1cccc(Br)c1 |  | 0.4 | 16 | 3.78 | 11.4
50 | O=C1c2c(ccc(O)c2O)CN1Cc1ccc(F)c(F)c1F |  | 2.7 | 153 |  | 
51 | O=C1c2c(ccc(O)c2O)CN1Cc1ccc(F)c(F)c1 |  | 0.9 | 72 | 1.08 | 9.01
52 | O=C1c2ccc(O)c(O)c2C(=O)N1Cc1ccc(F)c(F)c1 |  | 0.1 | 27 | 5.88 | 7.94
53 | O=C1c2c(ccc(O)c2O)CN1Cc1cccc(Cl)c1F |  | 2 | 36 | 0.62 | 9.43
54 | O=C1c2c(ccc(O)c2O)CN1Cc1cc(F)ccc1F |  | 27 | > 333 | 1.24 | 13.4
55 | O=C1c2ccc(O)c(O)c2C(=O)N1Cc1ccc(F)c(F)c1F |  | 0.8 | 18 |  | 
